Reference: paper PMC9926489, “Chemical Optimization of Selective Pseudomonas aeruginosa LasB Elastase Inhibitors and Their Impact on LasB-Mediated Activation of IL-1β in Cellular and Animal Infection Models” (ACS Infectious Diseases, 2023)

Key:
[1] = Thermodynamic solubility in PBS (pH 7.4); format: physicochemical; settings: aqueous buffer, thermodynamic from solid
[2] = molecular target: T1, MMP-2 (Homo sapiens, UniProt P08253); test: MMP-2 selectivity assay; format: biochemical; settings: human MMP-2
T1 sequence (P08253 110-660): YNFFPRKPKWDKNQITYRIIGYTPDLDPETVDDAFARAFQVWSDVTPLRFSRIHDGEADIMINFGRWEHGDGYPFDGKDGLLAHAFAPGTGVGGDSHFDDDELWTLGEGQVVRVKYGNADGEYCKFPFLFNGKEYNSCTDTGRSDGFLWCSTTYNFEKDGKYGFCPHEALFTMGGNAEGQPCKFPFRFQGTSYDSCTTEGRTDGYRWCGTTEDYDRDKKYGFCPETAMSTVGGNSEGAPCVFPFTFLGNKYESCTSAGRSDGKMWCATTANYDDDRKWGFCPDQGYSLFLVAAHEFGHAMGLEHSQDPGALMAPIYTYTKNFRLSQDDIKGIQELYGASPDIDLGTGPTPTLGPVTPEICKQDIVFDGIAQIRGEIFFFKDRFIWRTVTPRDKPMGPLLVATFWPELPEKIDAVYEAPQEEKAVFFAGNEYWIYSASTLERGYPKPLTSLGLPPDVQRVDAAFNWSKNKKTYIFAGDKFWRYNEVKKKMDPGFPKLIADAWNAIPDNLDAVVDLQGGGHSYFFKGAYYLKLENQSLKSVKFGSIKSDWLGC
Procedure: Selectivity of compound inhibition was evaluated against other proteases at concentrations between 0.4 and 200 μM. Activity against rabbit angiotensin-converting enzyme (ACE, Sigma) was assessed using 10 μM fluorogenic substrate Abz-Phe-Arg-Lys(Dnp)-P (Enzo Life Sciences) in 100 mM Tris-HCl pH 7, 50 mM NaCl, 10 μM Zn SO4. Activity against human matrix metalloproteases (MMP)-2 and MMP-9 was assessed in 50 mM HEPES pH 7.5, 10 mM CaCl2, 0.01% Triton X-100 using 4 μM fluorogenic substrate Mca-Pro-Leu-Gly-Leu-Dpa-Ala-Arg-NH2 (Enzo Life Sciences). Activity against MMP-1 and MMP-13 was assessed in 25 mM HEPES pH 7.5, 100 mM NaCl, 100 mM CaCl2, 0.0005% Brij using 7.5 μM fluorogenic substrate Mca-Lys-Pro-Leu-Gly-Leu-Dpa-Ala-Arg-NH2 (Sigma) for MMP-1 and 1.25 μM fluorogenic substrate Mca-Pro-Cha-Gly-Nva-His-Ala-Dpa-NH2 (Millipore) for MMP-13. Activity against human neutrophil elastase (HNE, Enzo Life Sciences) was assessed in 100 mM HEPES pH 7.5, 500 mM NaCl, 0.01% of Triton X-100 using 100 μM fluorogenic substrate MeOSuc-AAPV-AMC (Enzo Life Sciences).

[3] = Cytotoxicity screening (MTS), SAEC; format: cell-based; settings: human, small airway epithelial cells (SAEC)
Procedure: Bronchial smooth muscle cells (BSMC, Lonza CC-2576), small airway epithelial cells (SAEC, Lonza CC-2547), or HepG2 cells (ATCC HB-8065) were seeded in 96-well plates at a density of 25,000 per well. Culture of these cells throughout the protocol utilized incubation at 37 °C, 5% CO2 in a humidified atmosphere, with BSMC and SAEC cells cultured in cell-specific media (Lonza) and HepG2 cells cultured in RPMI 1640 medium containing Glutamax (Gibco) and 10% fetal bovine serum. Plates containing BSMC cells were collagen coated to assist with cell adhesion. Following an overnight settling period, media was replaced with fresh media, with, or without, compound. Compound concentrations tested were 1, 3, 10, 30, and 100 μM, in duplicate. The cells were incubated with compound for 24 h. Control (1% DMSO) and positive standards terfenadine- and salmeterol-treated groups were included for both cell lines. […] The reaction was stopped with 12.5 μL of 10% SDS, plates briefly shaken, and absorbance (490 nm) read using a Spectramax M5e plate reader (Molecular Devices). Percentages of viable cells were calculated as: (test sample Abs 490 nM-mean blank Abs 490 nm)/(mean control Abs 490 nM-mean blank Abs 490 nm) × 100.

[4] = system: IL-1β activation; test: IL-1β activation in P. aeruginosa-infected THP-1 macrophages (HEK IL-1R-lux reporter assay); format: cell-based, human; settings: Homo sapiens; PAO1-infected THP-1 macrophages, IL-1 reporter assay; read-out: EC50, decrease in IL-1β activation
Procedure: Further to showing in vitro inhibition of LasB-mediated pro-IL-1β proteolysis, experiments were performed to determine the effect of compounds 12 and 16 on IL-1β activation and functionality in human macrophage cell cultures infected with P. aeruginosa PAO1, or an isogenic lasB deletion mutant thereof (ΔlasB). In these experiments, the levels of LasB activity in culture supernatants were measured via hydrolysis of the Sub115 fluorescent peptide, while the effect of LasB activity on IL-1β activation (functionality) was measured using a luciferase reporter cell line sensitive to IL-1β induction (Figure 3).
Human THP-1 macrophages were cultured by conventional methods then, pre-infection, culture media were replaced by RPMI lacking phenol red and antibiotics. […] After 2 h post-infection, 50 μL aliquots of supernatant were removed and used to quantitate both LasB activity and IL-1β functionality. To determine LasB activity, 50 μL of supernatant was added to Sub115 IL-1β peptide and hydrolysis of Sub115 was monitored spectrophotometrically with excitation at 355 nm and emission at 450 nm, as described above. Results were expressed as relative fluorescence units (RFU).
To determine IL-1β functionality, generation of an IL-1 signal was quantified by adding 50 μL of supernatant to HEK IL-1R-lux reporter cells cultured in RPMI supplemented with 5% heat-inactivated FBS, 200 μg/mL penicillin/streptomycin, 200 μg/mL hygromycin, 100 μg/mL zeomycin, and 0.5 μg/mL puromycin. No bacteria survived in this antibiotic condition; 18 h post-treatment, IL-1β-dependent luciferase induction was assayed by luminescence measured with D-luciferin substrate (Steady-Luc, Biotium) on a multimode reader (PerkinElmer) and expressed as relative luminescence units (RU), as previously described.[16]
In the first variation, experimental infections were performed with P. aeruginosa PAO1 and ΔlasB bacteria incubated with varying quantities of inhibitor at final concentrations ranging from 0.5 to 8 μM. […]

Structure (SMILES) | solubility [1] [mg/mL] | IC50 [2] [µM] | IC50 at 24 h [3] [µM] | EC50 [4] [µM]
COc1cc2sc(CNC(=O)C3(CC(=O)O)Cc4ccccc4C3)nc2cc1OCCC[N+](C)(C)C [Compound 12] | 17.7 | > 200 | > 100 | ~0.5
COc1cc2sc(CNC(=O)C3(CC(=O)O)Cc4cc(F)c(F)cc4C3)nc2cc1OCCC[N+](C)(CCO)CCO [Compound 16] | 15.1 | > 200 | > 100 | ~0.5
